The target in one assay is rat P2X7 (Rattus norvegicus (Rat), UniProt Q64663). As to the kind of experiment: Rat P2X7 functional assay (Ca2+ influx, Fluo-4, FDSS). It is filed as cell-based. As to conditions: HEK293 cells stably expressing rat P2X7; BzATP final 10 microM; 7-point dose-response; read-out: Antagonistic activities with respect to the rat P2X7 receptor (IC50). An outline of the steps:
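HEK293 cells stably expressing rat P2X7 (5,000/well, plated 24 h before) loaded with Fluo-4; compounds preincubated 10 min at room temperature, then Ca2+ rise after 10 microM BzATP (final) read on FDSS (480/540 nm). IC50 from 7-point curves, duplicate wells.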

A further assay concerns the target human P2X7 (Homo sapiens (Human), UniProt Q99572). The assay is described as follows: Human P2X7 functional assay (Ca2+ influx, Fluo-4, FDSS). The assay is classed as cell-based. As to conditions: antagonistic activity with respect to the human P2X7 receptor; BzATP final concentration 80 microM. An outline of the steps: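 HEK293 cells stably expressing C-terminally FLAG-tagged human P2X7, loaded with Fluo-4. Compounds were preincubated for 10 min at room temperature, then 80 μM BzATP (final) was added and Ca2+ fluorescence read at 540 nm (480 nm excitation) by FDSS. IC50 values come from 7-point curves, duplicate wells.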

human P2X7, sequence (Q99572 whole entry): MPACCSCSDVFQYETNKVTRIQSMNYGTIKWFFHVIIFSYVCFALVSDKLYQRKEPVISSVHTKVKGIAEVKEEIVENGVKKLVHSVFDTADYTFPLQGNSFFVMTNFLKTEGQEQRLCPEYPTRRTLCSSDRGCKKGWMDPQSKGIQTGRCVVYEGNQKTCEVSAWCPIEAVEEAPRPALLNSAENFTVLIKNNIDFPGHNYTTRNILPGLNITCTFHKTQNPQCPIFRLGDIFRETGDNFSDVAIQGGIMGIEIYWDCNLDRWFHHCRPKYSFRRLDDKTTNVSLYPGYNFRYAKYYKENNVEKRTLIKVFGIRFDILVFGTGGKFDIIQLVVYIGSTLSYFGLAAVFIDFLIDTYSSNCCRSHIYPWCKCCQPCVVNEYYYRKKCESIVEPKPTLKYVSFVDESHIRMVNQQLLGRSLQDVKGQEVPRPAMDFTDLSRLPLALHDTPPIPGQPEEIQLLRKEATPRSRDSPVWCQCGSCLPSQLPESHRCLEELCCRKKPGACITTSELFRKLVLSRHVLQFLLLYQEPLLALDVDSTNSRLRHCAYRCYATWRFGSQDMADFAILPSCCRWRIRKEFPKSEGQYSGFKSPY
rat P2X7, sequence (Q64663 whole entry): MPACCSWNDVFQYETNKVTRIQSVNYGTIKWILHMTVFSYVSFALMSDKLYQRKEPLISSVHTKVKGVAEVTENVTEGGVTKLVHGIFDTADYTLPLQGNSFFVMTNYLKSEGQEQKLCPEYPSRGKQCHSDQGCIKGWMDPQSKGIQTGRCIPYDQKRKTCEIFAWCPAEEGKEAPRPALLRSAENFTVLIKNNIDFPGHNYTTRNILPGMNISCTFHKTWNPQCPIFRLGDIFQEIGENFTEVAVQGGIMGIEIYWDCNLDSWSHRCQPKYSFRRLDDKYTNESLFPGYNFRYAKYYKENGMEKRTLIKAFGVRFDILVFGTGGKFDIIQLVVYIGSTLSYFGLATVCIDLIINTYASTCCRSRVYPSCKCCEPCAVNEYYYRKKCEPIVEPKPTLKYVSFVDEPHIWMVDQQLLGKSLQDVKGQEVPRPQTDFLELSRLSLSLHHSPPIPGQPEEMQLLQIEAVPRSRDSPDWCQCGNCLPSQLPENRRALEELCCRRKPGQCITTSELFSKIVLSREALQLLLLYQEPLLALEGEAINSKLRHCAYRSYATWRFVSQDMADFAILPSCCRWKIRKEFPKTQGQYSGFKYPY

The IC50 is the concentration at which inhibition is half-maximal. For `O=C(NCc1cccc(Cl)c1Cl)C1CC(O)c2ncccc21` (stereo not shown) [Example 28, N-(2,3-dichlorobenzyl)-7-hydroxy-6,7-dihydro-5H-cyclo-penta[b]pyridine-5-carboxamide], the IC50 at rat P2X7 is less than 1000 nM; against human P2X7 it was 50 to 100 nM.

In the case of `O=C(NCc1ccc(Cl)cc1Cl)[C@]1(F)CC[C@@](O)(CS(=O)(=O)CCO)c2ncccc21` [Example 300, (5S,8S)-N-(2,4-dichlorobenzyl)-5-fluoro-8-hydroxy-8-(((2-hydroxyethyl)sulfonyl)methyl)-5,6,7,8-tetrahydroquinoline-5-carboxamide], the IC50 on rat P2X7 is less than 1000 nM; at human P2X7, less than 50 nM.

With `O=C(NCc1ccc(F)c(F)c1Cl)[C@]1(F)CC[C@](O)(CO)c2ncccc21` [Example 313, (5S,8R)-N-(2-chloro-3,4-difluorobenzyl)-5-fluoro-8-hydroxy-8-(hydroxymethyl)-5,6,7,8-tetrahydroquinoline-5-carboxamide], the IC50 at rat P2X7 was less than 1000 nM; on human P2X7, 50 to 100 nM.

On to `O=C1CC[C@@](F)(C(=O)NCc2ccc(Cl)cc2Cl)c2cccnc21` [Example 248, (S)-N-(2,4-dichloro-benzyl)-5-fluoro-8-oxo-5,6,7,8-tetrahydroquinoline-5-carboxamide], for which the figures for the IC50 at rat P2X7 and on human P2X7 were less than 1000 nM and less than 50 nM, respectively.

As to `C[C@]1(O)CC[C@@](F)(C(=O)NCc2ccc(Cl)cc2F)c2cccnc21` [Example 264, (5S,8S)-N-(4-chloro-2-fluorobenzyl)-5-fluoro-8-hydroxy-8-methyl-5,6,7,8-tetrahydroquinoline-5-carboxamide], the IC50 at rat P2X7 is less than 1000 nM; on human P2X7, less than 50 nM.

`O=C(NCc1ccc(F)cc1C(F)(F)F)[C@@H]1CC[C@H](O)c2ncccc21` [Example 76, (5R,8S)-N-(4-fluoro-2-(tri-fluromethyl)benzyl)-8-hydroxy-5,6,7,8-tetra-hydroquinoline-5-carboxamide]: the IC50 at rat P2X7 was less than 1000 nM; against human P2X7, 50 to 100 nM.

For the molecule `CC1(O)CCC(F)(C(=O)NCc2cccc(C(F)(F)F)c2Cl)c2cccnc21` (stereo not shown) [Example 58, N-(2-chloro-3-(trifluoro-methyl)benzyl)-5-fluoro-8-hydroxy-8-methyl-5,6,7,8-tetrahydro-quinoline-5-carboxamide], the IC50 on rat P2X7 was less than 1000 nM; at human P2X7 it was less than 50 nM.

For the molecule `O=C(NCc1ccc(Cl)c(F)c1F)[C@]1(F)CC[C@@](O)(CO)c2ncccc21` [Example 322, (5S,8S)-N-(4-chloro-2,3-difluorobenzyl)-5-fluoro-8-hydroxy-8-(hydroxymethyl)-5,6,7,8-tetrahydroquinoline-5-carboxamide], the IC50 at rat P2X7 was less than 1000 nM; against human P2X7 it was 101 to 300 nM.

With `Cc1cc(Cl)cc(Cl)c1CNC(=O)[C@H]1CC[C@@H](O)c2ncccc21` [Example 85, (5S,8R)-N-(2,4-dichloro-6-methylbenzyl)-8-hy-droxy-5,6,7,8-tetrahydro-quinoline-5-carboxamide], the IC50 was less than 1000 nM at rat P2X7 and less than 50 nM against human P2X7.

In the case of `O=C(NCc1c(Cl)cc(Cl)cc1CO)[C@]1(F)CC[C@@H](O)c2ncccc21` [Example 104], the results for the 50% inhibitory concentration (IC50) at rat P2X7 and at human P2X7 were less than 1000 nM and less than 50 nM, respectively.

`COC1CN(C[C@]2(O)CC[C@@](F)(C(=O)NCc3ccc(F)cc3Cl)c3cccnc32)C1` (relative stereo) [Example 53, (5S*,8R*)-N-(2-chloro-4-fluorobenzyl)-5-fluoro-8-hydroxy-8-((3-methoxy-azetidin-1-yl)methyl)-5,6,7,8-tetrahydro-quinoline-5-carboxamide]: the IC50 at rat P2X7 was less than 1000 nM; on human P2X7, less than 50 nM.

On to `O=C(NCc1ncc(Cl)cc1Cl)[C@]1(F)CC[C@@](O)(CO)c2ncccc21` [Example 329, (5S,8S)-N-((3,5-dichloropyridin-2-yl)methyl)-5-fluoro-8-hydroxy-8-(hydroxymethyl)-5,8,7,8-tetrahydroquinoline-5-carboxamide], for which the IC50 at rat P2X7 is less than 1000 nM; on human P2X7 it was 50 to 100 nM.

For `C[C@@H](NC(=O)[C@]1(F)CC[C@@](O)(CO)c2ncccc21)c1ccc(Cl)cc1Cl` [Example 326, (5S,8S)-N-((R)-1-(2,4-dichlorophenyl)ethyl)-5-fluoro-8-hydroxy-8-(hydroxymethyl)-5,6,7,8-tetrahydroquinoline-5-carboxamide], the IC50 at rat P2X7 was less than 1000 nM; against human P2X7, less than 50 nM.

For the molecule `C[C@]1(O)CC[C@@](F)(C(=O)NCc2ccc(F)cc2Cl)c2cccnc21` [Example 259, (5S,8S)-N-(2-chloro-4-fluorobenzyl)-5-fluoro-8-hydroxy-8-methyl-5,6,7,8-tetrahydroquinoline-5-carboxamide], the values for the IC50 on rat P2X7 and against human P2X7 were less than 1000 nM and less than 50 nM, respectively.

In the case of `O=C(NCc1c(F)cc(Cl)cc1Cl)[C@]1(F)CC[C@@H](O)c2ncccc21` [Example 117, (5S,8R)-N-(2,4-dichloro-6-fluorobenzyl)-5-fluoro-8-hydroxy-5,6,7,8-tetrahydroquinoline-5-carboxamide], the IC50 was less than 1000 nM on rat P2X7 and less than 50 nM at human P2X7.

Regarding `O=C(NCc1c(Cl)cc(Cl)cc1CO)[C@]1(F)CC[C@H](O)c2ncccc21` [Example 131, (5S,8S)-N-(2,4-dichloro-6-(hydroxymethyl)benzyl)-5-fluoro-8-hydroxy-5,6,7,8-tetrahydroquinoline-5-carboxamide], the values for the IC50 on rat P2X7 and against human P2X7 were less than 1000 nM and less than 50 nM, respectively.

With `O=C(NCc1ccc(Cl)cc1Cl)[C@@]1(F)CC[C@@H](O)c2ncccc21` [Example 132, (5R,8R)-N-(2,4-dichlorobenzyl)-5-fluoro-8-hydroxy-5,6,7,8-tetrahydroquinoline-5-carboxamide], the IC50 at rat P2X7 was less than 1000 nM; against human P2X7, less than 50 nM.

With `C[C@@H](NC(=O)[C@]1(F)CC[C@](O)(CO)c2ncccc21)c1ccc(F)cc1Cl` [Example 328, (5S,8R)-N-((R)-1-(2-chloro-4-fluorophenyl)ethyl)-5-fluoro-8-hydroxy-8-(hydroxymethyl)-5,6,7,8-tetrahydroquinoline-5-carboxamide], the IC50 on rat P2X7 is less than 1000 nM; at human P2X7, 101 to 300 nM.

Turning to `N#Cc1ccc(CNC(=O)[C@]2(F)CC[C@H](O)c3ncccc32)c(F)c1` [Example 201, (5S,8S)-N-(4-cyano-2-fluorobenzyl)-5-fluoro-8-hydroxy-5,6,7,8-tetrahydroquinoline-5-carboxamide], the IC50 on rat P2X7 is less than 1000 nM; against human P2X7, 50 to 100 nM.

As for `Cc1ccc(F)c(CNC(=O)[C@]2(F)CC[C@H](O)c3ncccc32)c1Cl` [Example 142, (5S,8S)-N-(2-chloro-6-fluoro-3-methylbenzyl)-5-fluoro-8-hydroxy-5,6,7,8-tetrahydroquinoline-5-carboxamide], the IC50 is less than 1000 nM on rat P2X7 and less than 50 nM on human P2X7.

Turning to `O=C(NCc1cccc(C(F)(F)F)c1Cl)C1CCC(O)c2ncccc21` (stereo not shown) [Example 7, N-(2-chloro-3-(trifluoromethyl)benzyl)-8-hydroxy-5,6,7,8-tetrahydro-quinoline-5-carboxamide], the IC50 at rat P2X7 is less than 1000 nM; on human P2X7, less than 50 nM.

Take `O=C(NCc1ccc(F)cc1Cl)[C@]1(F)CC[C@@H](O)c2ncccc21` [Example 107, (5S,8R)-N-(2-chloro-4-fluorobenzyl)-5-fluoro-8-hydroxy-5,6,7,8-tetrahydroquinoline-5-carboxamide]: the IC50 on rat P2X7 was less than 1000 nM; against human P2X7, 101 to 300 nM.

For the molecule `C[C@]1(O)CC[C@@](F)(C(=O)NCC2(N3CCOCC3)CCCCC2)c2cccnc21` [Example 274, (5S,8S)-5-fluoro-8-hydroxy-8-methyl-N-((1-morpholinocyclohexyl)methyl)-5,6,7,8-tetrahydroquinoline-5-carboxamide], the IC50 on rat P2X7 was less than 1000 nM; on human P2X7 it was less than 50 nM.

Consider `CO[C@H]1CC[C@@](F)(C(=O)NCc2ccc(Cl)cc2F)c2cccnc21` [Example 340, (5S,8S)-N-(4-chloro-2-fluorobenzyl)-5-fluoro-8-methoxy-5,6,7,8-tetrahydroquinoline-5-carboxamide], for which the IC50 was less than 1000 nM at rat P2X7 and less than 50 nM against human P2X7.

Consider `O=C(NCc1ccc(F)c(F)c1F)[C@@H]1CC[C@H](O)c2ncccc21` [Example 72, (5R,8S)-8-hydroxy-N-(2,3,4-trifluorobenzyl)-5,6,7,8-tetrahydroquinoline-5-carboxamide], for which the IC50 on rat P2X7 was less than 1000 nM; against human P2X7, less than 50 nM.

Take `O=C(NCc1ccccc1Cl)[C@]1(F)CC[C@H](O)c2ncccc21` [Example 195, (5S,8S)-N-(2-chlorobenzyl)-5-fluoro-8-hydroxy-5,6,7,8-tetrahydroquinoline-5-carboxamide]: the IC50 at rat P2X7 was less than 1000 nM; against human P2X7, less than 50 nM.

Regarding `CO[C@H]1CC[C@@](F)(C(=O)NCc2ccc(F)cc2Cl)c2cccnc21` [Example 337, (5S,8S)-N-(2-chloro-4-fluorobenzyl)-5-fluoro-8-methoxy-5,6,7,8-tetrahydroquinoline-5-carboxamide], the IC50 on rat P2X7 was less than 1000 nM; at human P2X7, less than 50 nM.

Take `C[C@]1(O)CC[C@@](F)(C(=O)NCc2c(Cl)cc(F)cc2CO)c2cccnc21` [Example 262, (5S,8S)-N-(2-chloro-4-fluoro-6-(hydroxymethyl)benzyl)-5-fluoro-8-hydroxy-8-methyl-5,6,7,8-tetrahydroquinoline-5-carboxamide]: the half-inhibitory concentration (IC50) on rat P2X7 is less than 1000 nM; against human P2X7, less than 50 nM.

In the case of `N[C@@]1(CO)CC[C@@](F)(C(=O)NCc2ccc(Cl)cc2Cl)c2cccnc21` (relative stereo) [Example 60, (5S*,8S*)-8-amino-N-(2,4-dichloro-benzyl)-5-fluoro-8-(hydroxymethyl)-5,6,7,8-tetrahydroquinoline-5-carboxamide], the IC50 on rat P2X7 is less than 1000 nM; at human P2X7, 101 to 300 nM.

The values are drawn from patent US11077100B2, “Tetrahydroquinoline derivatives as P2X7 receptor antagonists” (RaQualia Pharma Inc., priority 2017, dated 2021).
